# Columns and labels:
# [1] = system: Human colorectal adenocarcinoma cells HCT116-MTAP-KO; assay: Mouse xenograft tumor pharmacodynamic model, HCT116-MTAP-KO; format: in vivo; conditions: PO 200 mg/kg once a day, 28 days of administration
# Experimental: (§1) In this example, the in vivo efficacy of the compound in a mouse xenograft tumor model after intragastric (PO) administration was tested.
# Human colorectal adenocarcinoma cells HCT116-MTAP-KO were cultured in monolayer in vitro under the condition of McCoy's 5A medium containing 10% fetal bovine serum and 1% penicillin and streptomycin, and the culture was carried out at 37° C. with 5% CO2. The cells were digested with trypsin three times a week for passaging. When the saturation degree of the cells was 80-90%, the cells were collected, counted and inoculated. 0.1 mL (5×10^6 cells) of HCT116-MTAP-KO cells were subcutaneously inoculated on the right back of each mouse. On day 16 after inoculation of the cells, the mean tumor volume reached 154 mm^3. The mice were randomly grouped for administration and intragastrically dosed once daily. Changes in body weight and tumor volume were recorded. After a certain number of days of administration, the experiment was ended. Tumor volume changes and mouse body weight changes were counted and analyzed. AG270 (CAS: 2201056-66-6) was the positive control compound.
# [2] = system: Human pancreatic cancer cells KP-4; assay: Mouse xenograft tumor pharmacodynamic model, KP-4; format: in vivo; conditions: KP-4 xenograft, PO 200 mg/kg once a day, 29 days of administration
# Experimental: as §1
# Human pancreatic cancer cells KP-4 were cultured in monolayer in vitro under the condition of 1640 medium containing […] and […] and streptomycin, and the culture was carried out at 37° C. with 5% CO2. The cells were digested with trypsin three times a week for passaging. When the saturation degree of the cells was 80-90%, the cells were collected, counted and inoculated. 0.1 mL (5×10^6 cells) of KP-4 cells were subcutaneously inoculated on the right back of each mouse. On day 34 after inoculation of the cells, the mean tumor volume reached 154 mm^3. The mice were randomly grouped for administration and intragastrically dosed once daily. Changes in body weight and tumor volume were recorded. After 29 days of administration, the experiment was ended. Tumor volume changes and mouse body weight changes were counted and analyzed. AG270 (CAS: 2201056-66-6) was the positive control compound.
substance,measurement,setting,value
AG270 [reference compound],Tumor growth inhibition percentage (TGI),[1],once a day TGI = 33.82%
same,Tumor growth inhibition percentage (TGI),[2],once a day TGI = 57.48%

# Reference: patent publication US20240391923A1, “METHIONINE ADENOSYLTRANSFERASE 2A INHIBITOR FOR TREATING MTAP DELETION-TYPE CANCER” (SUZHOU GENHOUSE BIO CO., LTD., priority 2022, published 2024)
